Experimental data from US20200223889A1, “Bicyclic Compounds Capable of Binding to Melanocortin 4 Receptor” (Novo Nordisk A/S, priority 2017, published 2020).
pEC50, pKi: −log10 of the molar value. Where two headings read alike, the source gives them in different places. Positions of bridges follow the written chain, without caps; N, C: chain ends. Non-standard residues stand in square brackets, D forms with d. Residues, ends and D or L forms follow the SMILES beside them. Hyp = O=C(O)[C@@H]1C[C@@H](O)CN1; Thz = O=C(O)[C@@H]1CSCN1; Aib = CC(C)(N)C(=O)O; GABA = NCCCC(=O)O

Tests used:
[1] = target: T1, human MC4R (Homo sapiens, UniProt P32245); assay: Functional cAMP assay (CisBio HTRF) in BHK cells expressing human MC4R; assay type: cell-based; conditions: for MC1R/MC4R cAMP EC50 ratio: MC1R cAMP EC50 divided by MC4R cAMP EC50
T1 construct: expressed in transfected cells
Summary of the method: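 Stably transfected BHK cells expressing human MC1R or MC4R; cAMP quantified by HTRF (cAMP-d2/cryptate) after 30 min compound stimulation at 25 °C in DMEM-based buffer with 1 mM IBMX. Compounds were prepared as 10-fold serial dilutions starting at 2 μM (working solution, 2× final). Readout after 1 h at 25 °C; non-linear regression.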

[2] = target: T2, human MC1R (Homo sapiens, UniProt Q01726); assay: Functional cAMP assay (CisBio HTRF) in BHK cells expressing human MC1R; assay type: cell-based
T2 construct: expressed in transfected cells
Experimental: In order to assess the potency of the compounds on human MC1R and human MC4R cAMP signalling was measured.
cAMP induction was measured by c-AMPdynamic2 assay, HTRF 62AM4PEC system from CisBio for the human MC1R and human MC4R according to the protocol provided by the vendor. BHK cells expressing the human MC1 or MC4 receptor were generated by stable transfection with expression vectors encoding the cDNA of either MC1R or MC4R.
In details; 25 μl compound—or standard solution were added in the respective wells. Compound was reconstituted in buffer (DMEM w/o phenol red, 10 mM
Hepes, lx Glutamine, 0.1% OV-albumin1, 1 mM IBMX) and serially diluted starting at 2 μM, 10-fold seven times. Dilutions were carried out in the same aforementioned buffer to the desired working concentration ranges (2× higher than the final concentration). 25 μl cell solution was then added and allowed to incubate for 30 min while lightly shaking, at 25° C. […] The provided components for the assay were reconstituted according to the CisBio assay protocol “3.1 supplied reagents and preparation procedure” in MilliQ purification system H2O and diluted 1:20 in lysis buffer. 25 μl cAMP-d2 and 25 μl Cryptate conjugate were added to all wells.
Plates were centrifuged at 1500 rpm for 30 sec and incubated for 1 h, lightly shaking, at 25° C. in a hotel stacker. The plates were read on Mithras LB 940 provided by Berthold Technologies The data were analysed by non-linear regression analysis of binding curves, using the Windows™ program GraphPad™ Prism (GraphPad Software, USA).
The latter is used when no full curve can be obtained in the concentration ranges indicated above.

[3] = target: T1, human MC4R; assay: 125NDP-α-MSH competitive binding to membranes of BHK cells expressing human MC4 receptor (filtration assay)
Summary of the method: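 Displacement of ^125NDP-α-MSH (apx. […] final) was measured by filtration after 2 h at 25 °C, using diluted membranes of stably transfected BHK cells in pH 7.0 HEPES buffer. Compounds spanned 1 μM to 0.001 nM; binding curves were analysed by non-linear regression.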

[4] = BHK cells expressing human MC4R, '>' = highest dose used with no response, read-out: MC4R cAMP EC50
[5] = BHK cells expressing human MC1R, '>' = highest dose used with no response, read-out: MC1R cAMP EC50
[6] = human MC4R, BHK cell membranes, 125NDP-α-MSH radioligand, read-out: MC4R binding Ki

T2 sequence (Q01726 whole entry): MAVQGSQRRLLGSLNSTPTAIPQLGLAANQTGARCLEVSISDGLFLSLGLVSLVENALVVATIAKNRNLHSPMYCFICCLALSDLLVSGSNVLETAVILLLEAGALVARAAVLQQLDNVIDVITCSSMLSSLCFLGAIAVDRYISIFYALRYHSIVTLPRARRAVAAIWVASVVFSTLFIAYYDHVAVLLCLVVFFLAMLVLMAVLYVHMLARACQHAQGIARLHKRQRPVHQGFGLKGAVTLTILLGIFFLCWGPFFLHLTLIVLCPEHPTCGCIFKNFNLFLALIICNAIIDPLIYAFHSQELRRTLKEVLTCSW
T1 sequence (P32245 whole entry): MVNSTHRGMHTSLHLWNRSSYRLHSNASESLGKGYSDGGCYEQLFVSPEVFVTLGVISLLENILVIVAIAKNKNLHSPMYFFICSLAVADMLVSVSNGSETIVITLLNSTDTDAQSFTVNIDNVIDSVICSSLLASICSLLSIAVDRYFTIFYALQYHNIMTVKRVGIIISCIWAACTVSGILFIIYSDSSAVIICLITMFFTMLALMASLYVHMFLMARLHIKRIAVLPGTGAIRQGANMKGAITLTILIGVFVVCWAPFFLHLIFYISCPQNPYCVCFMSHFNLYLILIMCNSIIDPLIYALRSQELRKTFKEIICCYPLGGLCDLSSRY

| SMILES | pEC50 [1, 4] | MC1R/MC4R cAMP EC50 ratio [1] | pEC50 [2, 5] | pKi [3, 6] | pEC50 [1] | pEC50 [2] | pKi [3] |
| --- | --- | --- | --- | --- | --- | --- | --- |
| C[C@@H]1NC(=O)[C@@H]2CSCSC[C@H](NC(=O)[C@H](Cc3c[nH]c4ccccc34)NC(=O)[C@H](CCCNC(=N)N)NC(=O)[C@@H](Cc3ccccc3)NC(=O)[C@H](Cc3c[nH]cn3)NC1=O)C(=O)N[C@@H](C)C(=O)N[C@@H](Cc1c[nH]cn1)C(=O)N[C@H](Cc1ccccc1)C(=O)N[C@@H](CCCNC(=N)N)C(=O)N[C@@H](Cc1c[nH]c3ccccc13)C(=O)N2 [Chem. 8, c[c[Cys-Ala-His-D-Phe-Arg-Trp-Cys]- Ala-His-D-Phe-Arg-Trp]] | 10.70 | 88 | 8.75 | 10.10 | – | – | – |
| C[C@H]1NC(=O)[C@@H]2CSSC[C@H](NC(=O)[C@H](Cc3c[nH]c4ccccc34)NC(=O)[C@H](CCCNC(=N)N)NC(=O)[C@@H](Cc3ccccc3)NC(=O)[C@H](Cc3c[nH]cn3)NC1=O)C(=O)N[C@H](C)C(=O)N[C@@H](Cc1c[nH]cn1)C(=O)N[C@H](Cc1ccccc1)C(=O)N[C@@H](CCCNC(=N)N)C(=O)N[C@@H](Cc1c[nH]c3ccccc13)C(=O)N2 [Chem. 10, c[c[Cys-D-Ala-His-D-Phe-Arg-Trp- Cys]-D-Ala-His-D-Phe-Arg-Trp]] | – | 98 | – | – | 10.30 | 8.31 | 9.89 |
| C[C@@H]1NC(=O)[C@H](C)NC(=O)[C@@H]2CSSC[C@H](NC(=O)[C@H](Cc3c[nH]c4ccccc34)NC(=O)[C@H](C)NC(=O)[C@@H](Cc3ccccc3)NC1=O)C(=O)N[C@@H](C)C(=O)N[C@@H](Cc1c[nH]cn1)C(=O)N[C@H](Cc1ccccc1)C(=O)N[C@@H](CCCNC(=N)N)C(=O)N[C@@H](Cc1c[nH]c3ccccc13)C(=O)N2 [Chem. 11, c[[Cys-Ala-His-D-Phe-Arg-Trp-Cys]- Ala-Ala-D-Phe-Ala-Trp]] (cyclo(AA[dF]AWCAH[dF]RWC); disulfide 6-12) | – | 72 | – | – | 10.52 | 8.66 | 9.60 |
| C[C@@H]1NC(=O)[C@@H]2CSSC[C@H](NC(=O)[C@H](Cc3c[nH]c4ccccc34)NC(=O)[C@H](CCCNC(=N)N)NC(=O)[C@@H](Cc3ccccc3)NC(=O)[C@H](Cc3c[nH]cn3)NC1=O)C(=O)N[C@@H](CCCNC(=N)N)C(=O)N[C@@H](Cc1ccccc1)C(=O)N[C@@H](Cc1ccccc1)C(=O)N[C@@H](CC(N)=O)C(=O)N[C@@H](C)C(=O)N2 [Chem. 12, c[c[Cys-Ala-His-D-Phe-Arg-Trp-Cys]- Arg-Phe-Phe-Asn-Ala]] (cyclo(ACAH[dF]RWCRFFN); disulfide 2-8) | – | 57 | – | – | 10.15 | 8.40 | 9.55 |
| C[C@@H]1NC(=O)[C@@H]2CSSC[C@H](NC(=O)[C@H](Cc3c[nH]c4ccccc34)NC(=O)[C@H](CCCNC(=N)N)NC(=O)[C@@H](Cc3ccccc3)NC(=O)[C@H](Cc3c[nH]cn3)NC1=O)C(=O)N[C@@H](CCCNC(=N)N)C(=O)N[C@@H](Cc1ccccc1)C(=O)N[C@@H](Cc1ccccc1)C(=O)N[C@@H](CC(N)=O)C(=O)N[C@@H](C)C(=O)N[C@@H](Cc1ccccc1)C(=O)N2 [Chem. 13, c[c[Cys-Ala-His-D-Phe-Arg-Trp-Cys]- Arg-Phe-Phe-Asn-Ala-Phe]] (cyclo(AFCAH[dF]RWCRFFN); disulfide 3-9) | – | 64 | – | – | 10.00 | 8.20 | 9.59 |
| C[C@@H]1NC(=O)[C@@H]2CSSC[C@H](NC(=O)[C@H](Cc3c[nH]c4ccccc34)NC(=O)[C@H](CCCCNC(=N)N)NC(=O)[C@@H](Cc3ccccc3)NC(=O)[C@H](Cc3c[nH]cn3)NC1=O)C(=O)N[C@@H](C)C(=O)N[C@@H](Cc1c[nH]cn1)C(=O)N[C@H](Cc1ccccc1)C(=O)N[C@@H](CCCCNC(=N)N)C(=O)N[C@@H](Cc1c[nH]c3ccccc13)C(=O)N2 [Chem. 22, c[c[Cys-Ala-His-D-Phe-HArg-Trp- Cys]-Ala-His-D-Phe-HArg-Trp]] | 10.70 | 11 | 9.66 | 10.22 | – | – | – |
| N=C(N)NCCC[C@@H]1NC(=O)[C@@H](Cc2ccccc2)NC(=O)[C@H](Cc2c[nH]cn2)NC(=O)[C@H]2CCCN2C(=O)[C@@H]2CSSC[C@H](NC(=O)[C@H](Cc3c[nH]c4ccccc34)NC1=O)C(=O)N1CCC[C@@H]1C(=O)N[C@@H](Cc1c[nH]cn1)C(=O)N[C@H](Cc1ccccc1)C(=O)N[C@@H](CCCNC(=N)N)C(=O)N[C@@H](Cc1c[nH]c3ccccc13)C(=O)N2 [Chem. 33, c[c[Cys-D-Pro-His-D-Phe-Arg-Trp- Cys]-D-Pro-His-D-Phe-Arg-Trp]] (cyclo(C[dP]H[dF]RWC[dP]H[dF]RW); disulfide 1-7) | 7.70 | – | < 9.00 | 7.56 | – | – | – |
| N=C(N)NCCC[C@@H]1NC(=O)[C@@H](Cc2ccccc2)NC(=O)[C@H](Cc2c[nH]cn2)NC(=O)CCCNC(=O)[C@@H]2CSSC[C@H](NC(=O)[C@H](Cc3c[nH]c4ccccc34)NC1=O)C(=O)NCCCC(=O)N[C@@H](Cc1c[nH]cn1)C(=O)N[C@H](Cc1ccccc1)C(=O)N[C@@H](CCCNC(=N)N)C(=O)N[C@@H](Cc1c[nH]c3ccccc13)C(=O)N2 [Chem. 35, c[c[Cys-GABA-His-D-Phe-Arg-Trp- Cys]-GABA-His-D-Phe-Arg-Trp]] (cyclo(C[GABA]H[dF]RWC[GABA]H[dF]RW); disulfide 1-7) | 11.00 | 28 | 9.55 | 10.52 | – | – | – |
| CC1(C)NC(=O)[C@@H]2CSSC[C@H](NC(=O)[C@H](Cc3c[nH]c4ccccc34)NC(=O)[C@H](CCCNC(=N)N)NC(=O)[C@@H](Cc3ccccc3)NC(=O)[C@@H]3C[C@@H](O)CN3C1=O)C(=O)NC(C)(C)C(=O)N1C[C@H](O)C[C@H]1C(=O)N[C@H](Cc1ccccc1)C(=O)N[C@@H](CCCNC(=N)N)C(=O)N[C@@H](Cc1c[nH]c3ccccc13)C(=O)N2 [Chem. 38, c[c[Cys-Aib-Hyp-D-Phe-Arg-Trp- Cys]-Aib-Hyp-D-Phe-Arg-Trp]] (cyclo([Aib][Hyp][dF]RWC[Aib][Hyp][dF]RWC); disulfide 6-12) | 8.37 | – | < 8.43 | 8.25 | – | – | – |
| C[C@@H]1NC(=O)[C@@H]2CSSC[C@H](NC(=O)[C@H](Cc3c[nH]c4ccccc34)NC(=O)[C@H](CNC(=N)N)NC(=O)[C@@H](Cc3ccccc3)NC(=O)[C@H](Cc3c[nH]cn3)NC1=O)C(=O)N[C@@H](C)C(=O)N[C@@H](Cc1c[nH]cn1)C(=O)N[C@H](Cc1ccccc1)C(=O)N[C@@H](CNC(=N)N)C(=O)N[C@@H](Cc1c[nH]c3ccccc13)C(=O)N2 [Chem. 42, c[c[Cys-Ala-His-D-Phe-AGP-Trp- Cys]-Ala-His-D-Phe-AGP-Trp]] | < 6.00 | – | < 7.00 | ≤ 5.00 | – | – | – |
| C[C@@H]1NC(=O)[C@@H]2CSSC[C@H](NC(=O)[C@H](Cc3c[nH]c4ccccc34)NC(=O)[C@H](CCCNC(=N)N)NC(=O)[C@@H](Cc3ccccc3)NC(=O)[C@H](Cc3c[nH]cn3)NC1=O)C(=O)N[C@@H](C)C(=O)N[C@@H](CCC(=O)O)C(=O)N[C@@H](CCC(=O)O)C(=O)N[C@@H](CCC(=O)O)C(=O)N[C@@H](Cc1c[nH]c3ccccc13)C(=O)N2 [Chem. 44, c[c[Cys-Ala-His-D-Phe-Arg-Trp-Cys]- Ala-Glu-Glu-Glu-Trp]] (cyclo(AEEEWCAH[dF]RWC); disulfide 6-12) | – | 21 | – | – | 8.82 | 7.50 | 7.29 |
| C[C@@H]1NC(=O)[C@H](CCC(=O)O)NC(=O)[C@H](CC(=O)O)NC(=O)[C@H](C)NC(=O)[C@@H]2CSSC[C@H](NC(=O)[C@H](Cc3c[nH]c4ccccc34)NC1=O)C(=O)N1CSC[C@H]1C(=O)N[C@@H](Cc1c[nH]cn1)C(=O)N[C@H](Cc1ccccc1)C(=O)N[C@@H](Cc1c[nH]cn1)C(=O)N[C@@H](Cc1c[nH]c3ccccc13)C(=O)N2 [Chem. 107, c[c[Cys-THAZ-His-D-Phe-His-Trp- Cys]-Ala-Asp-Glu-Ala-Trp]] (cyclo(ADEAWC[Thz]H[dF]HWC); disulfide 6-12) | – | >10 | – | – | 7.98 | < 7.00 | – |
| C[C@@H]1NC(=O)[C@H](CC(=O)O)NC(=O)[C@H](CCC(=O)O)NC(=O)[C@H](C)NC(=O)[C@@H]2CSSC[C@H](NC(=O)[C@H](Cc3c[nH]c4ccccc34)NC1=O)C(=O)N1CSC[C@H]1C(=O)N[C@@H](Cc1c[nH]cn1)C(=O)N[C@H](Cc1ccccc1)C(=O)N[C@@H](Cc1c[nH]cn1)C(=O)N[C@@H](Cc1c[nH]c3ccccc13)C(=O)N2 [Chem. 108, c[c[Cys-THAZ-His-D-Phe-His-Trp- Cys]-Ala-Glu-Asp-Ala-Trp]] (cyclo(AEDAWC[Thz]H[dF]HWC); disulfide 6-12) | – | >40 | – | – | – | < 7.00 | – |
